Experimental data published in patent publication US11992473B2, “Compositions and methods for diagnosis and treatment of conditions related to the quality of aging and longevity” (Epitracker, Inc., priority 2018, dated 2024).

Tests used:
Assay type in all cases: cell-based, human
[1] = system: Venular endothelial cells, peripheral blood mononuclear cells; assay: BioMAP Diversity PLUS LPS system (Th1 type chronic inflammation, monocyte activation); details: for Significant log10 reduction compared to nontreated controls: Secreted prostaglandin E2 (PGE2): LPS system
Experimental: (§1) This study examined activities of small molecules discovered in dolphin serum that had protective profiles against diseases of aging which can impact quality of life and longevity. These molecules were tested across 12 human primary cell-based systems as part of DiscoverX's BioMAP Diversity Plus program. These systems are designed to model complex human tissue and disease biology of the vasculature, skin, lung, and inflammatory tissues. Quantitative measurements of biomarker activities across this broad panel, along with comparative analysis of biological activities of known bioactive agents were used to predict and compare the efficacy and function of the four compounds. Compounds were tested at four concentrations (740 nm and 2.2, 6.7 and 20 μM).
(§2) BioMAP panels consist of human primary cell-based systems designed to model different aspects of the human body in an in vitro format. The 12 systems in the Diversity PLUS panel allow test agent characterization in an unbiased way across a broad set of systems modeling various human disease states. BioMAP systems are constructed with one or more primary cell types from healthy human donors, with stimuli (such as cytokines or growth factors) added to capture relevant signaling networks that naturally occur in human tissue or pathological conditions. Vascular biology is modeled in both a Th1 (3C system) and a Th2 (4H system) inflammatory environment, as well as in a Th1 inflammatory state specific to arterial smooth muscle cells (CASM3C system). Additional systems recapitulate aspects of the systemic immune response including monocyte-driven Th1 inflammation (LPS system) or T cell stimulation (SAg system), chronic Th1 inflammation driven by macrophage activation (lMphg system) and the T cell-dependent activation of B cells that occurs in germinal centers (BT system). The BE3C system (Th1) and the BF4T system (Th2) represent airway inflammation of the lung, while the MyoF system models myofibroblast-lung tissue remodeling. Lastly, skin biology is addressed in the KF3CT system modeling Th1 cutaneous inflammation and the HDF3CGF system modeling wound healing.
(§3) Each test agent generates a signature BioMAP profile that is created from the changes in protein biomarker readouts within individual system environments. Biomarker readouts (7-17 per system) are selected for therapeutic and biological relevance, are predictive for disease outcomes or specific drug effects and are validated using agents with known mechanism of action (MoA). Each readout is measured quantitatively by immune-based methods that detect protein (e.g., ELISA) or functional assays that measure proliferation and viability. BioMAP readouts are diverse and include cell surface receptors, cytokines, chemokines, matrix molecules and enzymes.
(§4) The Diversity PLUS panel allows test agent characterization in an unbiased way across a broad set of systems modeling various human disease states. These systems are designed to model complex human tissue and disease biology of the vasculature, skin, lung, and inflammatory tissues.
(§5) BioMAP systems are constructed with one or more primary cell types from healthy human donors, with stimuli (such as cytokines or growth factors) added to capture relevant signaling networks that naturally occur in human tissue or pathological conditions. Vascular biology is modeled in both a Th1 (3C system) and a Th2 (4H system) inflammatory environment, as well as in a Th1 inflammatory state specific to arterial smooth muscle cells (CASM3C system). Additional systems recapitulate aspects of the systemic immune response including monocyte-driven Th1 inflammation (LPS system) or T cell stimulation (SAg system), chronic Th1 inflammation driven by macrophage activation (lMphg system) and the T cell-dependent activation of B cells that occurs in germinal centers (BT system).

[2] = system: Venular endothelial cells, peripheral blood mononuclear cells; assay: BioMAP Diversity PLUS SAg system (T cell stimulation, Th1 type chronic inflammation); details: human cell system mimicking T-cell driven chronic inflammation and autoimmune diseases; concentrations ranging from 740 nm to 6.7 μM (FIG. 2)
Experimental: as §1, §2
as §3, with “enzymes. In total, the Diversity PLUS panel contains 148 biomarker readouts that capture biological changes that occur within the physiological context of the particular BioMAP system. Specific BioMAP activities have been correlated to in vivo biology, and multiparameter BioMAP profiles have been used to distinguish compounds based on MoA and target selectivity across diverse physiological systems.” for “enzymes.”
(§6) The Diversity PLUS panel allows test agent characterization in an unbiased way across a broad set of systems modeling various human disease states. These systems are designed to model complex human tissue and disease biology of the vasculature, skin, lung, and inflammatory tissues. Quantitative measurements of 148 biomarker activities across this broad panel, along with comparative analysis of biological activities from known bioactive agents, were used to predict and compare the efficacy and function of each selected compound at four concentrations (740 nm and 2.2, 6.7 and 20 μM). […]

[3] = system: Coronary artery smooth muscle cells; assay: BioMAP Diversity PLUS CASM3C system (Th1 type vascular inflammation); details: CASM3C system
Experimental: as §1, §2, §3, §4, §5

[4] = system: Dermal fibroblasts; assay: BioMAP Diversity PLUS HDF3CGF system (wound healing and matrix/tissue remodeling)
Experimental: as §1, §2, §3, §4, §5

[5] = system: Lung fibroblasts; assay: BioMAP Diversity PLUS MyoF system (myofibroblast differentiation and tissue remodeling)
Experimental: as §1, §2
as §3, with “enzymes. In total, the Diversity PLUS panel contains 148 biomarker readouts that capture biological changes that occur within the physiological context of the particular BioMAP system. Specific BioMAP activities have been correlated to in vivo biology, and multiparameter BioMAP profiles have been used to distinguish compounds based on MoA and target selectivity across diverse physiological systems.” for “enzymes.”
as §6

[6] = system: Bronchial epithelial cells, dermal fibroblasts; assay: BioMAP Diversity PLUS BF4T system (Th2 type lung inflammation)
Experimental: as §1, §2
as §3, with “enzymes. In total, the Diversity PLUS panel contains 148 biomarker readouts that capture biological changes that occur within the physiological context of the particular BioMAP system. Specific BioMAP activities have been correlated to in vivo biology, and multiparameter BioMAP profiles have been used to distinguish compounds based on MoA and target selectivity across diverse physiological systems.” for “enzymes.”
as §6

[7] = system: Peripheral blood mononuclear cells, B cells; assay: BioMAP Diversity PLUS BT system (T cell dependent B cell activation); details: BT system
Experimental: as §1, §2, §3, §4, §5

[8] = system: Bronchial epithelial cells; assay: BioMAP Diversity PLUS BE3C system (Th1 type lung inflammation)
Experimental: as §1, §2
as §3, with “enzymes. In total, the Diversity PLUS panel contains 148 biomarker readouts that capture biological changes that occur within the physiological context of the particular BioMAP system. Specific BioMAP activities have been correlated to in vivo biology, and multiparameter BioMAP profiles have been used to distinguish compounds based on MoA and target selectivity across diverse physiological systems.” for “enzymes.”
as §6

[9] = system: Macrophages, venular endothelial cells; assay: BioMAP Diversity PLUS lMphg system (Th1 type chronic inflammation, macrophage activation); details: /Mphg system
Experimental: as §1, §2
as §3, with “enzymes. In total, the Diversity PLUS panel contains 148 biomarker readouts that capture biological changes that occur within the physiological context of the particular BioMAP system. Specific BioMAP activities have been correlated to in vivo biology, and multiparameter BioMAP profiles have been used to distinguish compounds based on MoA and target selectivity across diverse physiological systems.” for “enzymes.”
as §6

For `CS(=O)(=O)CC[C@H](N)C(=O)O` [Methionine sulfone], the “Significant log10 reduction compared to nontreated controls: Secreted prostaglandin E2 (PGE2)” value ([1]; 0.7 μM) was −0.12 log10, the “Significant log10 reduction compared to nontreated controls: Secreted prostaglandin E2 (PGE2)” value ([1]; 2.2 μM) was −0.08 log10 and the “secretion of prostaglandin E2 (PGE2)” value ([1]; human cell system mimicking T-cell and monocyte driven chronic inflammation and cardiovascular diseases (FIG. 4)) was “lowered”. The T cell proliferation [2] was “decreased”, the “Significant log10 reduction compared to nontreated controls: Vascular cell adhesion molecule 1 (VCAM-1)” value (shortened to “Significant log10 reduction … (VCAM-1)”) ([3]; 0.7 μM) was −0.10 log10 and the “Significant log10 reduction … (VCAM-1)” value ([3]; 2.2 μM) was −0.09 log10. The “Significant log10 reduction compared to nontreated controls: Monocyte chemoattractant protein 1 (MCP-1)” value (from here on “Significant log10 reduction … (MCP-1)”) ([4]; HDF3CGF system, 6.7 μM) was −0.24 log10, the decorin ([4]; human cell system mimicking wound healing, remodeling, fibrosis and chronic inflammation (FIG. 7)) was “inhibitory activity” and the “Significant log10 reduction compared to nontreated controls: Decorin” value ([5]; 6.7 μM) was −0.07 log10. For the same compound, the “Significant log10 reduction compared to nontreated controls: Decorin” value ([5]; 20.0 μM) was −0.11 log10.
For `CCCCCCC=CCCCCCCCCC(=O)O` [10-heptadecanoate], the “Significant log10 reduction compared to nontreated controls: Eotaxin 3 (CCL26)” value (shortened to “Significant log10 reduction … (CCL26)”) ([6]; 2.2 μM) was −0.10 log10, the “Significant log10 reduction … (CCL26)” value ([6]; 6.7 μM) was −0.13 log10 and the “Significant log10 reduction … (CCL26)” value ([6]; 20.0 μM) was −0.31 log10. For the same compound, the “Significant log10 reduction compared to nontreated controls: Serum amyloid A” value ([3]; 2.2 μM) was −0.13 log10, the “Significant log10 reduction compared to nontreated controls: Macrophage colony-stimulating factor (M-CSF)” value ([4]; HDF3CGF system, 6.7 μM) was −0.1 log10 and the “Significant log10 reduction … (VCAM-1)” value ([4]; HDF3CGF system, 6.7 μM) was −0.17 log10.
For “lignoceroylcarnitine [Lignoceroylcarnitine (C24)]”, the “Significant log10 reduction compared to nontreated controls: B cell proliferation” value ([7]; 0.7 μM) was −0.15 log10, the “Significant log10 reduction compared to nontreated controls: B cell proliferation” value ([7]; 2.2 μM) was −0.09 log10 and the “Significant log10 reduction compared to nontreated controls: Secreted tumor necrosis factor alpha (TNFα)” value ([7]; 2.2 μM) was −0.10 log10. The “Significant log10 reduction compared to nontreated controls: B cell proliferation” value ([7]; 6.7 μM) was −0.09 log10, the “Significant log10 reduction compared to nontreated controls: Secreted interleukin 2 (IL-2)” value ([7]; 6.7 μM) was −0.11 log10 and the “Significant log10 reduction compared to nontreated controls: B cell proliferation” value ([7]; 20.0 μM) was −0.07 log10. For the same compound, the “Significant log10 reduction compared to nontreated controls: Secreted interleukin 6 (IL-6)” value ([7]; 20.0 μM) was −0.13 log10, the “Significant log10 reduction compared to nontreated controls: Secreted interleukin 17A (IL-17A)” value ([7]; 20.0 μM) was −0.25 log10 and the “Significant log10 reduction compared to nontreated controls: Keratin 8/18” value (“Significant log10 reduction … Keratin 8/18” for short) ([6]; 0.7 μM) was −0.07 log10. For the same compound, the “Significant log10 reduction … Keratin 8/18” value ([6]; 2.2 μM) was −0.07 log10, the “Significant log10 reduction … Keratin 8/18” value ([6]; 6.7 μM) was −0.09 log10 and the “Significant log10 reduction … Keratin 8/18” value ([6]; 20.0 μM) was −0.11 log10. The “Significant log10 reduction compared to nontreated controls: Interferon-inducible T cell alpha chemoattractant (I-TAC)/CXCL11” value ([8]; 0.7 μM) was −0.05 log10, the “Significant log10 reduction compared to nontreated controls: Interferon-inducible T cell alpha chemoattractant (I-TAC)/CXCL11” value ([8]; 2.2 μM) was −0.12 log10 and the “Significant log10 reduction compared to nontreated controls: Alpha smooth muscle actin (αSMA)” value (“Significant log10 reduction … (αSMA)” for short) ([5]; 0.7 μM) was −0.08 log10. The “Significant log10 reduction … (αSMA)” value ([5]; 2.2 μM) was −0.13 log10, the “Significant log10 reduction … (αSMA)” value ([5]; 6.7 μM) was −0.18 log10 and the “Significant log10 reduction … (αSMA)” value ([5]; 20.0 μM) was −0.20 log10. For the same compound, the “Significant log10 reduction … (MCP-1)” value ([9]; 2.2 μM) was −0.29 log10, the “Significant log10 reduction … (MCP-1)” value ([9]; 6.7 μM) was −0.16 log10 and the “Significant log10 reduction … (MCP-1)” value ([9]; 20.0 μM) was −0.11 log10.
